Patent US7141561B2, “Substituted diaryl heterocycles, process for their preparation and their use as medicaments” (Sanofi-Aventis Deutschland GmbH, priority 2002, dated 2006)

System: female NMRI mice
Experiment: Anorectic effect: cumulative condensed milk consumption of mice
Assay type: in vivo
Conditions: oral dose 30 mg/kg by gavage
Procedure: The anorectic effect was tested on female NMRI mice. After withdrawal of food for 17 hours, the test compound was administered by gavage. The animals were housed singly with free access to drinking water and were offered condensed milk 30 minutes after administration of the compound. Condensed milk consumption was determined every half hour for 7 hours, and the general wellbeing of the animals was observed. The measured milk consumption was compared with the vehicle-treated control animals.
Table 1: Anorectic effect measured as the reduction in the cumulative milk consumption of treated compared with control animals.

## CN(C)CCOc1ccc(-n2ccn(-c3ccc(Oc4ccccc4)cc3)c2=O)cc1 [Example 1, 1-[4-(2-Dimethylaminoethoxy)phenyl]-3-(4-phenoxyphenyl)-1,3-dihydroimidazol-2-one]
Female NMRI mice after 17 hours food withdrawal, N=5, consumption determined for 7 hours
  cumulative milk consumption of the treated animals: 5/1.7 ml
Female NMRI mice, compared with vehicle-treated control animals
  Reduction in the cumulative milk consumption as % of the control: 58%
